This passage reports IC50 results from patent US12091425B2 (AMGEN INC., priority 2016, dated 2024).

T1 sequence (Q07820 171-327): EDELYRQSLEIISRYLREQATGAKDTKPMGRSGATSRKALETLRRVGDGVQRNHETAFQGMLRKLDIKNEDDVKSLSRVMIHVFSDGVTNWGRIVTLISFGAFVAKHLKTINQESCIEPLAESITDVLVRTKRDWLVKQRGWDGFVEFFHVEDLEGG

The first test concerns the target T1, Mcl-1/Bim interaction, recombinant human Mcl-1 (171-327) (Homo sapiens, UniProt Q07820).
T1 construct: made in house
Briefly: Cell free Mcl-1: Bim Affinity Assay (Mcl-1 HTRF). In kind it is binding. To be noted: TR-FRET, 0.1 nM Mcl-1 (171-327), 0.05 nM biotin-Bim (51-76). In outline:
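Read-out is time-resolved FRET after overnight incubation, using a biotin-labelled peptide from human Bim (51-76) as the binding partner; IC50 was derived from competition curves.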
For orientation: In TR-FRET formats the signal depends on donor and acceptor labels being close together.
Broadly, the IC50 is the concentration needed to halve the response being measured. Consider `CC(=O)N1C/C=C/CS(=O)(=O)NC(=O)c2ccc3c(c2)N(C[C@@H]2CC[C@H]2C1)C[C@@]1(CCCc2cc(Cl)ccc21)CO3.CC(=O)N1C/C=C\CS(=O)(=O)NC(=O)c2ccc3c(c2)N(C[C@@H]2CC[C@H]2C1)C[C@@]1(CCCc2cc(Cl)ccc21)CO3` (mixture of isomers) [Example 371, (1S,3′R,6′R,10′E)-8′-acetyl-6-chloro-3,4-dihydro-2H,15′H-spiro[naphthalene-1,22′-[20]oxa[13]thia[1,8,14]triazatetracyclo[14.7.2.0^3,6.0^19,24]pentacosa[10,16,18,24]tetraen]-15′-one 13′,13′-dioxide and (1S,3′R,6′R,10′Z)-8′-acetyl-6-chloro-3,4-dihydro-2H,15′H-spiro[naphthalene-1,22′-[20]oxa[13]thia[1,8,14]triazatetracyclo[14.7.2.0^3,6.0^19,24]pentacosa[10,16,18,24]tetraen]-15′-one 13′,13′-dioxide], for which the IC50 turned out to be 20.8 nM.

Regarding `O=C1NS(=O)(=O)C(C(F)F)CCC=CC(O)C2CCC2CN2CC3(CCCc4cc(Cl)ccc43)COc3ccc1cc32` (single isomer, unassigned) [Example 438], the IC50 was 0.731 nM.

Turning to `COCCO[C@H]1/C=C/CC[C@@H](C)S(=O)(=O)NC(=O)c2ccc3c(c2)N(C[C@@H]2CC[C@H]21)C[C@@]1(CCCc2cc(Cl)ccc21)CO3` [Example 405, (1S,3′R,6′R,7′S,8′E,12′R)-6-chloro-7′-(2-methoxyethoxy)-12′-methyl-3,4-dihydro-2H,15′H-spiro[naphthalene-1,22′-[20]oxa[13]thia[1,14]diazatetracyclo[14.7.2.0^3,6.0^19,24]pentacosa [8,16,18,24]tetraen]-15′-one 13′,13′-dioxide], the IC50 was 0.543 nM.

Turning to `CO[C@@H]1CCCCCS(=O)(=O)NC(=O)c2ccc3c(c2)N(C[C@@H]2CC[C@H]21)C[C@@]1(CCCc2cc(Cl)ccc21)CO3` [Example 1094, (1S,3′R,6′R,7′R)-6-chloro-7′-methoxy-3,4-dihydro-2H,15′H-spiro [naphthalene-1,22′-[20]oxa[13]thia[1,14]diazatetracyclo[14.7.2.0^3,6.0^19,24]pentacosa [16,18,24]trien]-15′-one 13′,13′-dioxide], the IC50 stood at 17.8 nM.

As to `O=C1NS(=O)(=O)C(CCOC(F)(F)F)CC/C=C/[C@H](O)[C@@H]2CC[C@H]2CN2C[C@@]3(CCCc4cc(Cl)ccc43)COc3ccc1cc32` (single isomer, unassigned) [Example 1012], the IC50 is 0.698 nM.

For `CC[C@@H]1CC/C=C/[C@H](OCC(=O)OC(C)(C)C)[C@@H]2CC[C@H]2CN2C[C@@]3(CCCc4cc(Cl)ccc43)COc3ccc(cc32)C(=O)NS1(=O)=O` [Example 971, tert-butyl (((1S,3′R,6′R,7′S,8′E,12′R)-6-chloro-12′-ethyl-13′,13′-dioxido-15′-oxo-3,4-dihydro-2H-spiro[naphthalene-1,22′-[20]oxa[13]thia[1,14]diazatetracyclo[14.7.2.0^3,6.0^19,24]pentacosa [8,16,18,24]tetraen]-7′-yl)oxy)acetate], the IC50 turned out to be 8.44 nM.

`CC[C@@H]1CC/C=C/[C@H](OCC(=O)OC)[C@@H]2CC[C@H]2CN2C[C@@]3(CCCc4cc(Cl)ccc43)COc3ccc(cc32)C(=O)NS1(=O)=O` [Example 991, methyl (((1S,3′R,6′R,7′S,8′E,12′R)-6-chloro-12′-ethyl-13′,13′-dioxido-15′-oxo-3,4-dihydro-2H-spiro[naphthalene-1,22′-[20]oxa[13]thia[1,14]diazatetracyclo[14.7.2.0^3,6.0^19,24]pentacosa [8,16,18,24]tetraen]-7′-yl)oxy)acetate]: the concentration for half-maximal inhibition (IC50) turned out to be 0.644 nM.

Regarding `COCC[C@H]1CC/C=C/[C@H](O)[C@@H]2CC[C@H]2CN2C[C@@]3(CCCc4cc(Cl)ccc43)COc3ccc(cc32)C(=O)NS1(=O)=O` (single isomer, unassigned) [Example 443], the half-inhibitory concentration (IC50) came to 1.51 nM.

With `CC[C@@H]1CCCOC[C@@H]2CC[C@H]2CN2C[C@@]3(CCCc4cc(Cl)ccc43)COc3ccc(cc32)C(=O)NS1(=O)=O` (single isomer, unassigned) [Example 368], the IC50 was 3.74 nM.

Staying with this test, now noted: cell free Mcl-1:Bim TR-FRET, recombinant human Mcl-1 (171-327).
For `CC1(C)C/C=C/[C@H](O)[C@@H]2CC[C@H]2CN2C[C@@]3(CCCc4cc(Cl)ccc43)COc3ccc(cc32)C(=O)NS1(=O)=O` [Example 769, (1S,3′R,6′R,7′S,8′E)-6-chloro-7′-hydroxy-11′,11′-dimethyl-3,4-dihydro-2H,14′H-spiro[naphthalene-1,21′-[19]oxa[12]thia[1,13]diazatetracyclo[13.7.2.0^3,6.0^18,23]tetracosa[8,15,17,23]tetraen]-14′-one 12′,12′-dioxide], the half-maximal inhibitory concentration (IC50) was found to be 0.971 nM.

As to `O=C1NS(=O)(=O)CCCCC[C@@H]2CC[C@H]2CN2C[C@@]3(CCCc4cc(Cl)ccc43)COc3ccc1cc32` [Example 818, (1S,3′R,6′R)-6-chloro-3,4-dihydro-2H,14′H-spiro[naphthalene-1,21′-[19]oxa[12]thia[1,13]diazatetracyclo[13.7.2.0^3,6.0^18,23]tetracosa[15,17,23]trien]-14′-one 12′,12′-dioxide], the IC50 turned out to be 13.6 nM.

Regarding `O=C1NS(=O)(=O)C[C@@H](CO)/C=C/C[C@H](O)[C@@H]2CC[C@H]2CN2C[C@@]3(CCCc4cc(Cl)ccc43)COc3ccc1cc32` (single isomer, unassigned) [Example 707], the IC50 amounted to 2.25 nM.

As to `CC[C@@H]1CC/C=C/[C@H](OC2COC2)[C@@H]2CC[C@H]2CN2C[C@@]3(CCCc4cc(Cl)ccc43)COc3ccc(cc32)C(=O)NS1(=O)=O` [Example 783, (1S,3′R,6′R,7′S,8′E,12′R)-6-chloro-12′-ethyl-7′-(3-oxetanyloxy)-3,4-dihydro-2H,15′H-spiro[naphthalene-1,22′-[20]oxa[13]thia[1,14]diazatetracyclo [14.7.2.0^3,6.0^19,24]pentacosa[8,16,18,24]tetraen]-15′-one 13′,13′-dioxide], the half-inhibitory concentration (IC50) was 1.04 nM.

Regarding `O=C1NS(=O)(=O)CCOC/C=C/[C@@H]2CC[C@H]2CN2C[C@@]3(CCc4cc(Cl)ccc43)COc3ccc1cc32` [Example 817, (3R,6S,7E,22S)-5′-chloro-2′,3′-dihydro-15H-spiro[10,20-dioxa-13-thia-1,14-diazatetracyclo[14.7.2.0^3,6.0^19,24]pentacosa-7,16,18,24-tetraene-22,1′-inden]-15-one 13,13-dioxide], the IC50 turned out to be 29.3 nM.

As to `O=C1NS(=O)(=O)/C=C/COC[C@@H](O)[C@@H]2CC[C@H]2CN2C[C@@]3(CCCc4cc(Cl)ccc43)COc3ccc1cc32` (single isomer, unassigned) [Example 917, (3R,6R,7S,11E,22S)-6′-chloro-7-hydroxy-3′,4′-dihydro-2′H,15H-spiro[9,20-dioxa-13-thia-1,14-diazatetracyclo[14.7.2.0^3,6.0^19,24]pentacosa-11,16,18,24-tetraene-22,1′-naphthalen]-15-one 13,13-dioxide or (3R,6R,7R,11E, 22S)-6′-chloro-7-hydroxy-3′,4′-dihydro-2′H,15H-spiro[9,20-dioxa-13-thia-1,14-diazatetracyclo[14.7.2.0^3,6.0^19,24]pentacosa-11,16,18,24-tetraene-22,1′-naphthalen]-15-one 13,13-dioxide], the IC50 is 4.11 nM.

Turning to `O=C1NS(=O)(=O)CCC[C@]2(O)CCO[C@H](C2)[C@@H]2CC[C@H]2CN2C[C@@]3(CCCc4cc(Cl)ccc43)COc3ccc1cc32` (single isomer, unassigned) [Example 900], the IC50 is 4.33 nM.
